Measured values taken from US20250332167A1, “PHARMACEUTICAL USE OF CDK 4/6 INHIBITOR” (priority 2021, published 2025).
Values joined by “and” are separate entries in the source; they are usually repeats but may differ in a detail not shown here. Equal entries are not always repeated.

Key:
[1] = tested on: Human glioblastoma model (BN2289); experiment: Human glioblastoma xenograft mouse model (BN2289); assay type: in vivo, BALB/C nude mice; details: 25 mg/kg oral gavage once daily, day 21
Source text: Human glioblastoma model (BN2289, Crown Bioscience Co., Ltd.) tumor fragments were cut into small pieces with a diameter of 2-3 mm and subcutaneously inoculated into the right side of BALB/C nude mice. Tumor growth was monitored regularly, and when the tumors grew to an average volume of approximately 100-200 mm^3, mice were randomly divided into groups based on the tumor size.
Each group consisted of 8 mice and received oral gavage administration once daily for a total of 28 days. Regular observations were made on tumor volume and changes in body weight. Efficacy evaluation was conducted based on the relative tumor growth rate (T/C) and the relative tumor inhibition rate (TGI).
(§1) The formula for calculating tumor volume was: Tumor Volume (mm^3)=½×(a×b^2) (where “a” represents the long diameter and “b” represents the short diameter).
(§2) The relative tumor growth rate (T/C) is the percentage value of the relative tumor volume or weight between the treatment group and the control group at a certain time point. The calculation formula is as follows: • T/C(%)=TRTV/CRTV×100% (TRTV: Average RTV of the treatment group; CRTV: Average RTV of the Vehicle group; RTV=Vt/V0, where V0 is the tumor volume of the animal at the time of grouping and Vt is the tumor volume of the animal after treatment).
(§3) (T and C are the relative tumor volume (RTV) or weight (TW) of the treatment group and control group at a specific time point, respectively).

NCI-H1975 xenograft = experiment: Human non-small cell lung cancer NCI-H1975 xenograft mouse model; assay type: in vivo, Balb/c nude mice; details: 25 mg/kg oral gavage once daily
Source text: as §1, §2, §3
NCI-H1975 cells were cultured in RPMI1640 medium containing 10% fetal bovine serum. Log-phase NCI-H1975 cells were collected, suspended in PBS to an appropriate concentration, and used for subcutaneous tumor implantation in Balb/c nude mice. Each female mouse was implanted with 0.1 ml of NCI-H1975 cells subcutaneously. When the average tumor volume reached 171 mm^3, the mice were randomly divided into groups based on tumor size.
The positive control drugs were Palbociclib and Abemaciclib.
Each group consisted of 8 mice, and oral gavage administration was performed once daily for a total of 21 days. Tumor volume and body weight changes were observed regularly, and efficacy evaluation was conducted based on relative tumor proliferation rate (T/C) and relative tumor growth inhibition rate (TGI). The calculation methods for tumor volume, T/C, and TGI are described in Example 3.

U118MG cells = experiment: Proliferation inhibition of human glioblastoma cells U118MG (DAPI cell count, 72 h); assay type: cell-based; details: U-118-MG, 72 h treatment
Procedure: Human glioblastoma cell U118MG was purchased from NANJING COBIOER BIOSCIENCES CO., LTD. […] The cell detection equipment used was the In Cell Analyzer 2200 (GE Healthcare).
(§4) With 60 μM as the initial concentration, ten points were obtained by serial five-fold dilution.
Medium for U118 MG is the MEM (low glucose) medium supplemented with 10% FBS, 1% penicillin/streptomycin, 1% sodium pyruvate, and 1% MEM NEAA. U118 MG cells were seeded at a density of 4000 cells/100 μL/well in a 96-well black clear-bottom plate and incubated at 37° C. overnight. The plate was then taken, and 20 μL of the prepared diluted samples was added to the wells. The cells were treated at 37° C. for 72 hours. After 72 hours, the plate was taken, and a neutral formaldehyde fixation solution (formaldehyde:PBS=1:9) was added at 50 μL/well. The cells were fixed at room temperature for 10-30 minutes. The wells were washed twice with 1× PBS (100 μL/well), and then permeabilized with 0.2% Triton™-X100 for 5-10 minutes (100 μL/well). […] The plate was scanned by using an In Cell Analyzer, and the number of cells in each well was analyzed. The inhibition rate of each compound at various concentration points was calculated by using the formula provided. The IC50 values were determined by curve fitting using GraphPad Prism 6.0 software.

NCI-H1792 = experiment: Proliferation inhibition, non-small cell lung cancer cell line NCI-H1792; assay type: cell-based; details: Homo sapiens, NCI-H1792, 72 h
Procedure: (§5) Sixteen non-small cell lung cancer cell lines, including NCI-H1792, NCI-H1703, NCI-H441, SNU-761, NCI-H1975, NCI-H358, NCI-H1838, NCI-H1915, A549, SK-MES-1, NCI-H292, PC-9, NCI-H460, NCI-H23, NCI-H1581, and HLF, were used for the proliferation inhibition assay of the present invention compound. […] The cell detection equipment used was In Cell Analyzer 2200 (GE Healthcare).
as §4
(§6) Each kind of cell in logarithmic growth phase was inoculated with 4000 cells/100 μl/well into a black transparent bottom 96-well plate and cultured overnight at 37° C. The next day, the plate was taken out, and 20 μL of the prepared sample dilutions was added to each well. The plate was then subjected to treatment at 37° C. for 72 hours. After the treatment period of 72 hours, the plate was taken out and 50 μL of neutral formaldehyde fixative (formaldehyde: PBS=1:9, 50 μl/well) was added to each well. The plate was then fixed at room temperature for 10-30 minutes. Subsequently, the wells were washed twice with 1× PBS (100 μl/well) and treated with 0.2% Triton™-X100 for 5-10 minutes to permeabilize the cells. […] The inhibitory rates of each compound at different concentration points were calculated by using the following formula, and IC50 values were obtained through curve fitting using GraphPad Prism 6.0 software.

NCI-H1703 = experiment: Proliferation inhibition, non-small cell lung cancer cell line NCI-H1703; assay type: cell-based; details: Homo sapiens, NCI-H1703, 72 h
Procedure: as §5, §4, §6

NCI-H441 = experiment: Proliferation inhibition, non-small cell lung cancer cell line NCI-H441; assay type: cell-based; details: Homo sapiens, NCI-H441, 72 h
Procedure: as §5, §4, §6

SNU-761 = experiment: Proliferation inhibition, non-small cell lung cancer cell line SNU-761; assay type: cell-based; details: Homo sapiens; SNU-761, 72 h
Procedure: as §5, §4, §6

NCI-H358 = experiment: Proliferation inhibition, non-small cell lung cancer cell line NCI-H358; assay type: cell-based; details: Homo sapiens, NCI-H358, 72 h
Procedure: as §5, §4, §6

NCI-H1838 = experiment: Proliferation inhibition, non-small cell lung cancer cell line NCI-H1838; assay type: cell-based; details: Homo sapiens, NCI-H1838, 72 h
Procedure: as §5, §4, §6

SMILES	Day 21 Tumor Volume [1]	Relative Average Tumor Volume [1]	T/C (relative tumor growth rate) [1]	TGI (relative tumor inhibition rate) [1]	T/C (NCI-H1975 xenograft; 16 days after administration)	TGI (NCI-H1975 xenograft; 16 days after administration)	Tumor relative volume (x ± S) (NCI-H1975 xenograft; 16 days after administration)	Tumor volume (x ± S) (NCI-H1975 xenograft; 16 days after administration)	Body weight change (NCI-H1975 xenograft; Day 20 of treatment)	IC50 (U118MG cells)	IC50 (NCI-H1792)	IC50 (NCI-H1703)	IC50 (NCI-H441)	IC50 (SNU-761)	IC50 (NCI-H358)	IC50 (NCI-H1838)
CC(=O)c1c(C)c2cnc(Nc3ccc(N4CCNCC4)cn3)nc2n(C2CCCC2)c1=O [Palbociclib, reference compound]	1417.98 ± 121.86 mm^3	9.58	66.01%	33.99%	66%	34%	7.7 ± 1.0	1469 mm^3 and 1469 ± 146 mm^3	slight decrease in body weight							
CCN1CCN(Cc2ccc(Nc3ncc(F)c(-c4cc(F)c5nc(C)n(C(C)C)c5c4)n3)nc2)CC1 [Abemaciclib, reference compound]	1627.31 ± 100.66 mm^3				93%	7%		2071 mm^3 and 2071 ± 148 mm^3		86 ± 22.9 nM	23 nM	93 nM	40 nM	54 nM	44 nM	90.2 nM
